Where a SMILES comes first, the peptide text is derived from it. Bridges are numbered along the chain shown (N, C = ends). [ ]: non-standard residue; d: D form. The star is where a group is joined. DOTA = O=C(O)CN1CCN(CC(=O)O)CCN(CC(=O)*)CCN(CC(=O)O)CC1; Hyp = O=C(O)[C@@H]1C[C@@H](O)CN1; Pentanoyl(4-Me) = CC(C)CCC(=O)*; 2Thi = N[C@@H](Cc1cccs1)C(=O)O; Cit = NC(=O)NCCC[C@H](N)C(=O)O; Butoxycarbonyl = CCCCOC(=O)*; Nle = CCCC[C@H](N)C(=O)O; Nva = CCC[C@H](N)C(=O)O; Pentanoyl = CCCCC(=O)*; Butyryl = CCCC(=O)*
Assays:
[1] = target: T1, human uPAR (uPAR-Fc) (Homo sapiens, UniProt Q03405); assay: Surface plasmon resonance (SPR) assay, single cycle kinetics; format: binding; conditions: pKD category for uPAR SPR activity assay; uPAR-Fc on Protein A-Chip, 25°C; read-out: pKD CAT (converted)
T1 construct: comprising amino acids Leu23-Arg303 according to UniProt entry Q03405.1; purchased R&D Systems 10378-UK-100
T1 sequence (Q03405 23-303): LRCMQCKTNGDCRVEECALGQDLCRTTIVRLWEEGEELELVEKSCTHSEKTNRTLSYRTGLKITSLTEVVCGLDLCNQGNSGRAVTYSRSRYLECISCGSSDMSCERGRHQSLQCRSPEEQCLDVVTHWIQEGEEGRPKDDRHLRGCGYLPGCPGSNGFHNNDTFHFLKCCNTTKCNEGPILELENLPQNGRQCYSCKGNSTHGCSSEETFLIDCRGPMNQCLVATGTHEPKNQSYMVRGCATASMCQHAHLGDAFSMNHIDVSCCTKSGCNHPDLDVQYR
Description: Surface plasmon resonance (SPR) is an optical technique used to measure molecular interactions in real time. SPR occur when plane-polarized light hits a metal film under total internal reflection conditions. SPR signal is directly dependent on the refractive index of the medium on the sensor chip. In an SPR experiment, one molecule (i.e. uPAR) is immobilized on a sensor chip and binding to a second molecule (i.e. test compounds) is measured under flow. The binding of the compound on the surface changes the refractive index. In responses the reflection angle changes as compounds bind and dissociate on the immobilized protein on the surface. This response is measured in resonance units (RU). The RUs are proportional to the number of molecules bound to the surface. […] Kinetic binding constants and equilibrium binding constants can be derived from the sensorgrams.
Surface plasmon resonance (SPR) studies were performed using a Biacore™ T200 or S200 SPR system (Cytiva, formerly GE Life Sciences) to assess binding of compounds to recombinant uPAR protein.
In this example recombinant protein comprising the extracellular domains of human uPAR (uPAR-Fc, R&D Systems, CAT 10378-UK-100, comprising amino acids Leu23-Arg303 according to UniProt entry Q03405.1 and Fc region of human IgG1 at the C-terminus) was immobilized on a Protein A-Chip (Cytiva, CAT 29127555) according to the supplier's instructions. uPAR-Fc was diluted in Running Buffer (10 mM HEPES, 150 mM NaCl, 50 µM EDTA, 0.1% DMSO, 0.05% Tween-20, pH 7.4) to a final concentration of 100 nM and then flushed over the Protein A-Chip to immobilized ~2000 RUs.
Stock solutions of test compounds were prepared by dissolving each compound in DMSO. DMSO stock solution were diluted 1: 1000 in Running Buffer without DMSO. Further sequential dilutions were made with Running Buffer containing 0.1% DMSO. SPR binding analyses were performed in Single Cycle Kinetic (SCK) mode at 25°C. Flow cell without immobilized uPAR-Fc served as reference flow cell. The chip was regenerated with 10 mM Glycine, pH 1,5 to remove the uPAR-Fc from the chip surface after each SCK run. After every three SCK measurements, a blank run with Running Buffer instead of test compound was included to correct for baseline drifts (double reference substraction method). Table 11: SPR protocol steps for SCK with uPAR-Fc immobilized on a Protein A-Chip.
For each test compound, SPR raw data sensorgrams were recorded using the Biacore™ T200 or S200 control software. Sensorgrams were processed and analyzed with the Biacore™ Insight Evaluation software. […] The reference subtracted sensorgram for each test compound was further corrected for baseline drift by subtracting the sensorgram of a reference subtracted blank run (Running Buffer only). The dissociation constant (KD) was calculated from the double reference subtracted sensorgrams using the 1:1 Langmuir binding model. The pKD value (negative decadic logarithm of dissociation constant) was calculated using Microsoft Excel.

[2] = target: T2, uPAR-expressing HEC-265 human endometrial adenocarcinoma cells (Homo sapiens, UniProt Q03405); assay: Competitive FACS binding assay; conditions: pIC50 category of FACS binding
T2 construct: Cell surface uPAR-expressing HEC-265 human endometrial adenocarcinoma cells; host or cells: HEC-265
T2 sequence (Q03405 23-335): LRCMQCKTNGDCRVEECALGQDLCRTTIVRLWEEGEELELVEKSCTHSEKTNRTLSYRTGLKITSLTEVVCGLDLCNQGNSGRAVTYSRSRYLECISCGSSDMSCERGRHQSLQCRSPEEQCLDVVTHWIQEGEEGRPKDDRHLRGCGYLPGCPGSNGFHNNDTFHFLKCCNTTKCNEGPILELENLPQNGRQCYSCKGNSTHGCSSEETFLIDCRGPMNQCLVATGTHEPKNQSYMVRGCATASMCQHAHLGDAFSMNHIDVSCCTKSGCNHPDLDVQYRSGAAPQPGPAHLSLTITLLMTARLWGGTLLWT
Description: In order to determine binding of compounds according to the present invention to uPAR-expressing cells, a competitive FACS binding assay was established.
Cell surface uPAR-expressing HEC-265 human endometrial adenocarcinoma cells (Japanese Collection of Research Bioresources, #JCRB1142) were cultured in MEM Eagle with stable glutamine (Pan Biotech, #P04-09500) including 15% fetal bovine serum (Pan Biotech, #P30-3306) and 100 U/ml penicillin and 100 µg/mL streptomycin (Pan Biotech, #P06-07100). Cells were detached with Cell Dissociation Buffer (Thermo Scientific, #13151014) and washed in FACS buffer (PBS (Pan Biotech, #P04-36500) including 1% BSA (SeraCare, #AP-4510-80). Cells were diluted in FACS buffer to a final concentration of 500.000 cells per ml and 200 µl of the cell suspension are transferred to a u-shaped non-binding 96-well plate (Greiner Bio-One, #650901).
For IC50 determination, cells were incubated with 10 nM Bio--Ttds--Ttds--Ttds--Ttds-D-Cha-FsrYLWS-NH2) in the presence of increasing concentrations of non-labeled test compounds at 4°C for 1 hour. Cells were washed twice in FACS buffer. An additional incubation step with 1 µg/mL APC-Streptavidin (Miltenyi; #130-106-791) in 50 µL FACS buffer for 30 minutes on ice was performed followed by two washes with FACS buffer. Cells were resuspended in 200 µl FACS buffer and analyzed in an Attune NxT flow cytometer. Median fluorescence intensities (APC channel) were calculated by Attune NxT software and plotted against peptide concentrations. Four parameter logistic (4PL) curve fitting and pIC50 calculations were performed using ActivityBase software.

| SMILES | Kd [1] [nM] | IC50 [2] [nM] |
| --- | --- | --- |
| CCCC[C@@H]1NC(=O)[C@H](CCCNC(=N)N)NC(=O)[C@@H](NC(=O)[C@H](CC(C)C)NC(=O)[C@@H](CC(=O)O)NC(C)=O)CSSC[C@@H](C(N)=O)NC(=O)[C@H](CC(C)C)NC(=O)[C@H]([C@@H](C)CC)NC(=O)[C@H](C)NC(=O)[C@@H]2CCCN2C(=O)[C@H](Cc2ccccc2)NC(=O)[C@H](Cc2ccc(O)cc2)NC1=O [UPAR-133, Ac-asp-Leu-[Cys-Arg-Nle-Tyr-Phe-Pro-Ala-Ile-Leu-Cys]-NH2] (Ac-[dD]LCR[Nle]YFPAILC-NH2; disulfide 3-12) | < 1.58 | ≤ 10 |
| CCCCOC(=O)N[C@H]1CSSC[C@@H](C(N)=O)NC(=O)[C@H](CCC)NC(=O)[C@H]([C@@H](C)CC)NC(=O)[C@@H]2C[C@@H](O)CN2C(=O)[C@@H]2CCCN2C(=O)[C@H](Cc2cccs2)NC(=O)[C@H](Cc2ccc(O)cc2)NC(=O)[C@H](CCCCNC(=O)CN2CCN(CC(=O)O)CCN(CC(=O)O)CCN(CC(=O)O)CC2)NC(=O)[C@H]([C@@H](C)O)NC1=O [UPAR-134, Butoc-[Cys-Thr-Lys(DOTA)-Tyr-Thi-Pro-Hyp-Ile-Nva-Cys]-NH2] (Butoxycarbonyl-CTK(DOTA)Y[2Thi]P[Hyp]I[Nva]C-NH2; disulfide 1-10) | < 1.58 | ≤ 10 |
| CCCC(=O)N[C@H]1CSSC[C@@H](C(N)=O)NC(=O)[C@H](CC(C)C)NC(=O)[C@H]([C@@H](C)CC)NC(=O)[C@@H](C)NC(=O)[C@@H]2CCCN2C(=O)[C@H](Cc2ccccc2)NC(=O)[C@H](Cc2ccc(O)cc2)NC(=O)[C@H](CCC(N)=O)NC(=O)[C@H](CCCNC(N)=O)NC1=O [UPAR-139, But-[Cys-Cit-Gln-Tyr-Phe-Pro-ala-Ile-Leu-Cys]-NH2] (Butyryl-C[Cit]QYFP[dA]ILC-NH2; disulfide 1-10) | 1.58 to 10 | 12.6 to 31.6 |

The remaining lines, values ahead:

| Kd [1] [nM] | IC50 [2] [nM] | SMILES |
| --- | --- | --- |
| < 1.58 | ≤ 10 | CCCCC(=O)N[C@H]1CSSC[C@@H](C(N)=O)NC(=O)[C@H](CCC)NC(=O)[C@H]([C@@H](C)CC)NC(=O)[C@@H]2C[C@@H](O)CN2C(=O)[C@@H]2C[C@@H](O)CN2C(=O)[C@H](Cc2ccccc2)NC(=O)[C@H](Cc2ccc(O)cc2)NC(=O)[C@H](CCCCNC(=O)CN2CCN(CC(=O)O)CCN(CC(=O)O)CCN(CC(=O)O)CC2)NC(=O)[C@H]([C@@H](C)O)NC1=O [UPAR-135, Pent-[Cys-Thr-Lys(DOTA)-Tyr-Phe-Hyp-Hyp-Ile-Nva-Cys]-NH2] (Pentanoyl-CTK(DOTA)YF[Hyp][Hyp]I[Nva]C-NH2; disulfide 1-10) |
| 1.58 to 10 | ≤ 10 | CCC[C@@H]1NC(=O)[C@@H](C)NC(=O)[C@@H]2CCCN2C(=O)[C@H](Cc2ccccc2)NC(=O)[C@H](Cc2ccc(O)cc2)NC(=O)[C@H](CCC(N)=O)NC(=O)[C@H](CCCNC(N)=O)NC(=O)[C@@H](NC(=O)CCC(C)C)CSSC[C@@H](C(N)=O)NC(=O)[C@H](CC(C)C)NC1=O [UPAR-136, iHex-[Cys-Cit-Gln-Tyr-Phe-Pro-ala-Nva-Leu-Cys]-NH2] ({Pentanoyl(4-Me)}-C[Cit]QYFP[dA][Nva]LC-NH2; disulfide 1-10) |
| 1.58 to 10 | 12.6 to 31.6 | CCCC[C@@H]1NC(=O)[C@H](CCCNC(=N)N)NC(=O)[C@@H](NC(=O)[C@H](CC(C)C)NC(=O)[C@H](CC(=O)O)NC(C)=O)CSSC[C@@H](C(N)=O)NC(=O)[C@@H](CC(C)C)NC(=O)[C@H]([C@@H](C)CC)NC(=O)[C@H](C)NC(=O)[C@@H]2CCCN2C(=O)[C@H](Cc2ccccc2)NC(=O)[C@H](Cc2ccc(O)cc2)NC1=O [UPAR-137, Ac-Asp-Leu-[Cys-Arg-Nle-Tyr-Phe-Pro-Ala-Ile-leu-Cys]-NH2] (Ac-DLCR[Nle]YFPAI[dL]C-NH2; disulfide 3-12) |

From patent EP4610269A1, “UROKINASE PLASMINOGEN ACTIVATOR SURFACE RECEPTOR (UPAR) LIGANDS FOR DIAGNOSTIC OR THERAPEUTIC USE” (3B Pharmaceuticals GmbH, priority 2024, dated 2025)
